What all share (type): cell-based
For data set [1], the system named is human leukaemia HEL cell line. Briefly: MTT in vitro cytotoxicity assay, HEL. To be noted: MTT assay after 48 h of treatment, averaged from at least 3 independent experiments, variation ±10%, read-out: IC50 (µM) HEL. The procedure: (§1) As summarized in Table 1, five cancer cell lines, including MDA-MB-231, PC3, WM9, HEL and K562 cell lines, were induced for testing the anti-cancer activities of those derivatives. The first line anti-cancer drug, vincristine, was treated as positive control. All the test compounds were dissolved in DMSO. The preliminary structure-activity relationship of all compounds against the 5 cancer cell lines was also investigated.
(§2) Human erythroleukemic cell lines HEL and K562, human breast cell lines MDA-MB-231, human prostate cell lines PC3 and human melanoma cell lines WM9 were cultured in RPMI (HEL and K562) or DMEM (MDA-MB-231, PC3, WM9) medium (high glucose) supplemented with 5% FBS (HyClone, GE Healthcare, Parramatta, Australia) and 1% ampicillin/streptomycin.
(§3) Cells were cultured in 96-well plates at densities of 1 × 10^5/well. The plates were pre-incubated at 37 °C for 24 h to allow adaptation of cells prior to the addition of the test compounds. Then, compounds were added to cells in triplicate in several doses, and incubated for an additional 2 days. The 50% inhibitory concentrations (IC50) were measured for fangchinoline derivatives using MTT (diphenyltetrazolium bromide) assay.
(In general: Tetrazolium assays rely on reduction of a dye to a coloured formazan, in cell work by metabolically active cells.)

The subject of data set [2] is human prostate cancer PC3 cell line. Nature of the data set: MTT in vitro cytotoxicity assay, PC3. To be noted: PC-3, MTT assay after 48 h of treatment, averaged from at least 3 independent experiments, variation ±10%, read-out: IC50 (µM) PC3. The method, then:
as §1, §2, §3

For data set [3], the system named is human melanoma WM9 cell line. Nature of the data set: MTT in vitro cytotoxicity assay, WM9. To be noted: Homo sapiens, WM9; MTT assay after 48 h of treatment; averaged from at least 3 independent experiments; variation ±10%; read-out: IC50 (µM) WM9. The method, then: as §1, §2, §3
The test system of data set [4] is human leukaemia K562 cell line. Briefly: MTT in vitro cytotoxicity assay, K562. Conditions: K562, MTT assay after 48 h of treatment, averaged from at least 3 independent experiments, variation ±10%, read-out: IC50 (µM) K562. The method, then: as §1, §2, §3
The test system of data set [5] is human breast cancer MDA-MB-231 cell line. Briefly: MTT in vitro cytotoxicity assay, MDA-MB-231. Conditions: MDA-MB-231, MTT assay after 48 h of treatment, averaged from at least 3 independent experiments, variation ±10%, read-out: IC50 (µM) MDA-MB-231. The method, then: as §1, §2, §3
Data set [6] in a line: Toxicity on normal human liver cell line. Conditions: HL7702 normal liver cells; normal human liver cell line HL7702; read-out: IC50 against HL7702 cell growth. The method, then:
(§4) 3 fangchinoline derivatives were also tested for their toxicities on normal human liver cell line HL7702.
as §3

Data set [7] has as its system normal human liver cell line HL7702. Nature of the data set: Toxicity on normal human liver cell line. Conditions: HL7702 versus cancer cell lines. The procedure:
as §4, §3

Take `COc1ccc2cc1Oc1ccc(cc1)C[C@H]1c3cc(c(OC)cc3CCN1C)Oc1c(OCc3ccccc3)c(OC)cc3c1[C@H](C2)N(C)CC3` [Compound 1a, 7-O-Benzyl-fangchinoline]: the IC50 in data set [1] stood at 4.42 µM; in data set [2], 3.65 µM; in data set [3], 3.44 µM; in data set [4], 4.75 µM; in data set [5] it was 5.13 µM.

Turning to `COc1ccc2cc1Oc1ccc(cc1)C[C@H]1c3cc(c(OC)cc3CCN1C)Oc1c(OCC=C(C)C)c(OC)cc3c1[C@H](C2)N(C)CC3` [Compound 1b, 7-O-(3-Methylbut-1-ene)-fangchinoline], the IC50 worked out at 4.01 µM in data set [1]; 7.22 µM in data set [2]; 5.56 µM in data set [3]; 6.6 µM in data set [4]; 4.44 µM in data set [5].

With `C=CCOc1c(OC)cc2c3c1Oc1cc4c(cc1OC)CCN(C)[C@H]4Cc1ccc(cc1)Oc1cc(ccc1OC)C[C@@H]3N(C)CC2` [Compound 1c, 7-O-(Prop-1-ene)-fangchinoline], the IC50 in data set [1] is 4.72 µM; in data set [2], 4.75 µM; in data set [3] it was 3.05 µM; in data set [4], 6.78 µM; in data set [5], 5.04 µM.

Turning to `COc1cc([N+](=O)[O-])c2cc1Oc1ccc(cc1)C[C@H]1c3cc(c(OC)cc3CCN1C)Oc1c(OCc3ccccc3)c(OC)cc3c1[C@H](C2)N(C)CC3` [Compound 2a, 7-Benzyl-14-nitro-fangchinoline], the IC50 was 8.96 µM in data set [1]; 3.69 µM in data set [2]; 3.04 µM in data set [3]; 8.33 µM in data set [4]; 8.6 µM in data set [5]. The IC50 at 2 days in data set [6] came to 5.6 µM.

Regarding `COc1ccc2cc1Oc1ccc(cc1)C[C@H]1c3cc(c(OC)cc3CCN1C)Oc1c(OC(C)=O)c(OC)cc3c1[C@H](C2)N(C)CC3` [Compound 3a, 7-O-Acetyl-fangchinoline], the IC50 in data set [1] amounted to 2.75 µM; in data set [2] it was 3.01 µM; in data set [3] it was 2.65 µM; in data set [4], 6.99 µM; in data set [5], 6.67 µM.

Take `COc1ccc2cc1Oc1ccc(cc1)C[C@H]1c3cc(c(OC)cc3CCN1C)Oc1c(OS(=O)(=O)c3ccc(C)cc3)c(OC)cc3c1[C@H](C2)N(C)CC3` [Compound 3b, 7-O-Tosyl-fangchinoline]: the IC50 in data set [1] worked out at 2.95 µM; in data set [2], 3.59 µM; in data set [3] it was 3.95 µM; in data set [4], 3.85 µM; in data set [5] it was 4.61 µM.

On to `COc1ccc2cc1Oc1ccc(cc1)C[C@H]1c3cc(c(OC)cc3CCN1C)Oc1c(OS(=O)(=O)c3ccccc3[N+](=O)[O-])c(OC)cc3c1[C@H](C2)N(C)CC3` [Compound 3c, 7-O-(o-Nirtobenzessulfonyl)-fangchinoline], for which the IC50 in data set [1] was found to be 6.82 µM; in data set [2], 4.76 µM; in data set [3], 3.58 µM; in data set [4], 4.06 µM; in data set [5], 8.7 µM.

For `COc1ccc2cc1Oc1ccc(cc1)C[C@H]1c3cc(c(OC)cc3CCN1C)Oc1c(OC(=O)c3ccco3)c(OC)cc3c1[C@H](C2)N(C)CC3` [Compound 3g, 7-O-(Furan-m-formyl)-fangchinoline], the IC50 in data set [1] is 4.04 µM; in data set [2] it was 4.33 µM; in data set [3], 3.13 µM; in data set [4] it was 6.39 µM; in data set [5] it was 6.02 µM. Moreover, in data set [6], the IC50 at 2 days is 17.3 µM. In addition, the “fold lower toxicity on HL7702 than inhibition on cancer cell lines” value in data set [7] was roughly 3 fold.

For `COc1ccc2cc1Oc1ccc(cc1)C[C@H]1c3cc(c(OC)cc3CCN1C)Oc1c(OC(=O)c3ccccc3)c(OC)cc3c1[C@H](C2)N(C)CC3` [Compound 3i, 7-O-Benzoyl-fangchinoline], the IC50 stood at 2.04 µM in data set [1]; 4.57 µM in data set [2]; 2.73 µM in data set [3]; 2.86 µM in data set [4]; 3.46 µM in data set [5].

`COc1cc(Br)c2cc1Oc1ccc(cc1)C[C@H]1c3cc(c(OC)cc3CCN1C)Oc1c(OC(=O)c3ccccc3)c(OC)c(Br)c3c1[C@H](C2)N(C)CC3` [Compound 4a, 7-O-Benzoyl-5,14-dibromo-fangchinoline]: the IC50 in data set [1] was found to be 2.65 µM; in data set [2], 4.22 µM; in data set [3], 2.51 µM; in data set [4], 2.45 µM; in data set [5] it was 4.12 µM.

Take `COc1cc(Cl)c2cc1Oc1ccc(cc1)C[C@H]1c3cc(c(OC)cc3CCN1C)Oc1c(OC(=O)c3ccccc3)c(OC)c(Cl)c3c1[C@H](C2)N(C)CC3` [Compound 4b, 7-O-Benzoyl-5,14-dichloro-fangchinoline]: the IC50 in data set [1] was determined as 5.11 µM; in data set [2], 3.85 µM; in data set [3], 3.54 µM; in data set [4], 3.16 µM; in data set [5], 7.22 µM.

Regarding `CC[C@]1(O)C[C@H]2CN(CCc3c([nH]c4ccccc34)[C@@](C(=O)OC)(c3cc4c(cc3OC)N(C=O)[C@H]3[C@@](O)(C(=O)OC)[C@H](OC(C)=O)[C@]5(CC)C=CCN6CC[C@]43[C@@H]65)C2)C1` [Vincristine, reference compound], the IC50 turned out to be 6.38 µM in data set [1]; 5.36 µM in data set [2]; 10.6 µM in data set [3]; 5.62 µM in data set [4]; 13.1 µM in data set [5].

The IC50 is the concentration that inhibits the measured activity by half.
